Seven compounds from PubChem BioAssay (NCI) can be followed below.

What all share (assay): NCI-60 cell line screen, 48 h
The test system of experiment [1] is HS 578T breast.
In experiment [2] the test system is RXF 393 renal.
Experiment [3] relates to M14 melanoma.
Experiment [4] deals with SF-268 CNS.
Experiment [5] has as its system MALME-3M melanoma.
The subject of experiment [6] is SR leukemia.
Experiment [7] deals with LOX IMVI melanoma.
The test system of experiment [8] is NCI-H522 lung.
The test system of experiment [9] is OVCAR-3 ovarian.
Experiment [10] has as its system SN12C renal.
For experiment [11], the system named is IGROV1 ovarian.
Experiment [12] deals with COLO 205 colon.
In experiment [13] the test system is PC-3 prostate.
The subject of experiment [14] is MDA-MB-231 breast.
The test system of experiment [15] is MCF7 breast.
Experiment [16] concerns UACC-257 melanoma.

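These data come from cells grown in 96-well plates and exposed to compound for 48 hours at five concentrations. TGI marks complete inhibition of growth.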

As for `COc1cc2cc(C(=O)N3CC(CCl)c4ccccc43)[nH]c2c(OC)c1OC` (configuration not stated), the TGI in experiment [1], in [2], in experiment [3], in experiment [4], in experiment [5] and in experiment [6] was over 100 µM in each case. For the same compound, the TGI is over 100 µM in experiment [7]; over 100 µM in experiment [8]; over 100 µM in experiment [9]; 55.2 µM in experiment [10]; over 100 µM in experiment [11]; over 100 µM in experiment [12]. For the same compound, the TGI in experiment [13], in [14], in [15] and in experiment [16] was over 100 µM each time.
Turning to `CN1CCC23c4c5ccc(O)c4OC2c2[nH]c4ccccc4c2CC3(O)C1C5` (configuration not stated), the TGI was 70.9 µM in experiment [1]; 66.1 µM in experiment [2]; 34.8 µM in [3]; over 100 µM in experiment [4]; 36.8 µM in experiment [5]; over 100 µM in experiment [6]. Besides, the TGI was 54.7 µM in experiment [7]; over 100 µM in [8]; over 100 µM in [9]; over 100 µM in experiment [10]; over 100 µM in experiment [11]; 33.1 µM in experiment [12]. In addition, the TGI in experiment [13] was over 100 µM; in [14] it was 86.5 µM; in experiment [15], over 100 µM; in [16], 36.8 µM.
Take `O=[N+]([O-])/C(C(Cl)=C(Cl)Cl)=C(/Sc1ccccc1)N1CCCCC1`: the TGI is over 100 µM in experiment [1]; over 100 µM in [2]; over 100 µM in experiment [3]; over 100 µM in experiment [4]; over 100 µM in experiment [5]; over 26.4 µM in experiment [6]. The TGI in experiment [7], in experiment [8], in experiment [9], in experiment [10], in experiment [11] and in experiment [12] was over 100 µM in each case. Besides, the TGI is over 100 µM in [13], over 100 µM in [14], over 100 µM in [15] and 99.1 µM in experiment [16].
As for `Cc1c(C)c2c(c(N)c1C#N)C(=O)N(CCN1CCNCC1)C2=O`, the TGI is over 100 µM in experiment [1]; 70.6 µM in experiment [2]; over 100 µM in [3]; over 100 µM in [4]; 73.1 µM in experiment [5]; 95 µM in experiment [6]. Besides, the TGI in experiment [7] is 47.9 µM; in experiment [8], 97.3 µM; in experiment [9] it was over 100 µM; in [10] it was over 100 µM; in experiment [11] it was over 100 µM; in [12] it was 78.7 µM. The TGI in [13], in [14], in experiment [15] and in experiment [16] was over 100 µM each time.
Take `COc1cc2c(cc1OCc1ccccc1)NC(=S)[C@@H]1CCCN1C2=S`: the TGI in experiment [1], in [2], in [3], in experiment [4], in experiment [5] and in [6] was over 100 µM in each case. Moreover, the TGI in experiment [7], in [8], in experiment [9], in [10], in experiment [11] and in experiment [12] was over 100 µM in each case. Besides, the TGI in [13], in [14], in experiment [15] and in experiment [16] was over 100 µM throughout.
Take `Cc1ccc(/C=C/C(=O)c2cc(CN(C)C)c(O)c(CN(C)C)c2)cc1`: the TGI in experiment [1] is 86.7 µM; in experiment [2] it was 55 µM; in experiment [3], 39.1 µM; in experiment [4], over 100 µM; in experiment [5], 35.6 µM; in experiment [6], 62.7 µM. The TGI in experiment [7] is 21.2 µM; in [8] it was 31.7 µM; in experiment [9] it was 69.5 µM; in experiment [10], 44 µM; in experiment [11], over 100 µM; in [12], 22.5 µM. Besides, the TGI was 36.8 µM in experiment [13], 27.2 µM in [14], 50.1 µM in [15] and 27.4 µM in experiment [16].
Take `COc1ccc(/C=C2\N=C(NN)N=C2Cl)cc1`: the TGI in experiment [1], in experiment [2], in experiment [3], in experiment [4], in experiment [5] and in [6] was over 100 µM throughout. Also, the TGI in [7], in experiment [8], in experiment [9], in [10], in experiment [11] and in [12] was over 100 µM throughout. The TGI in [13], in [14], in experiment [15] and in experiment [16] was over 100 µM throughout.
